Data set [1] concerns Rhabdomyosarcoma cell lines. Kind of data set: IC50 for mocetinostat across individual cell lines from different sarcoma subtypes (FIG. 1). In kind it is cell-based.
The subject of data set [2] is refractory and/or recurrent rhabdomyosarcoma. In kind it is in vivo, human. The following applies: dose escalation phase; orally 3 times weekly with vinorelbine 25 mg/m2 IV day 1, 8, 15 of 21 day cycles. Here is the method:
Methods: This is an investigator initiated Phase 1 single center, open-label, dose escalation/expansion clinical trial. A modified intent to treat approach is used for efficacy analysis for a target accrual of 20 subjects in the dose expansion cohort. Eligibility criteria include subjects >/=18 years old (yo) for the phase 1 dose escalation cohort and >/=12 years old for the phase 1 dose expansion cohort with a diagnosis of R/R RMS. Mocetinostat 40 mg, 70 mg or 90 mg was taken orally 3 times weekly with vinorelbine 25 mg/m2 IV on day 1,8, and 15 in 21 day cycles. PEG-filgrastim or biosimilar was added if subject experienced grade 3/4 neutropenia in a prior cycle. The maximum tolerated dose of mocetinostat in the dose escalation phase was 40 mg, which was selected as the dose for expansion cohort. Subjects were treated until disease progression by RECIST 1.1 or unacceptable toxicity.

The test system of data set [3] is follicular lymphoma and diffuse large B cell lymphoma. The following applies: cited from earlier work.
For data set [4] the following is noted: human, in vivo; cited from earlier work.
The test system of data set [5] is CYP2E1, CYP3A, CYP2C8, CYP2C19. The note with it: cited from earlier work.
The target of the next data set is CYP2C9 (Homo sapiens, UniProt P11712). The note with it: cited from earlier work.
Sequence of CYP2C9 (P11712 whole entry): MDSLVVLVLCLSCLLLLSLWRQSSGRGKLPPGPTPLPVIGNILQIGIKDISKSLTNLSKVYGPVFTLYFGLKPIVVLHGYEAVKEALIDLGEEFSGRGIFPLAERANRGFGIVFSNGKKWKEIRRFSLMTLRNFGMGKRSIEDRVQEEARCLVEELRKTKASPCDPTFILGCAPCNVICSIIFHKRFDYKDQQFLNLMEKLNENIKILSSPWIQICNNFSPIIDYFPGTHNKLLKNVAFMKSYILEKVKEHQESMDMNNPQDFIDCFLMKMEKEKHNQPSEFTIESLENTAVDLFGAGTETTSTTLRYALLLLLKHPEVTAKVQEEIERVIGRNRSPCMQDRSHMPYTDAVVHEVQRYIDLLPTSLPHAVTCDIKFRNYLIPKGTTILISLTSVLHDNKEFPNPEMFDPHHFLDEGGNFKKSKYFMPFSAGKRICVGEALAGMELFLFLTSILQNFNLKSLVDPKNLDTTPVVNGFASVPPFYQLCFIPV
The target of a further data set is P-gp (Homo sapiens, UniProt P08183). The following applies: cited from earlier work.
Sequence of P-gp (P08183 whole entry): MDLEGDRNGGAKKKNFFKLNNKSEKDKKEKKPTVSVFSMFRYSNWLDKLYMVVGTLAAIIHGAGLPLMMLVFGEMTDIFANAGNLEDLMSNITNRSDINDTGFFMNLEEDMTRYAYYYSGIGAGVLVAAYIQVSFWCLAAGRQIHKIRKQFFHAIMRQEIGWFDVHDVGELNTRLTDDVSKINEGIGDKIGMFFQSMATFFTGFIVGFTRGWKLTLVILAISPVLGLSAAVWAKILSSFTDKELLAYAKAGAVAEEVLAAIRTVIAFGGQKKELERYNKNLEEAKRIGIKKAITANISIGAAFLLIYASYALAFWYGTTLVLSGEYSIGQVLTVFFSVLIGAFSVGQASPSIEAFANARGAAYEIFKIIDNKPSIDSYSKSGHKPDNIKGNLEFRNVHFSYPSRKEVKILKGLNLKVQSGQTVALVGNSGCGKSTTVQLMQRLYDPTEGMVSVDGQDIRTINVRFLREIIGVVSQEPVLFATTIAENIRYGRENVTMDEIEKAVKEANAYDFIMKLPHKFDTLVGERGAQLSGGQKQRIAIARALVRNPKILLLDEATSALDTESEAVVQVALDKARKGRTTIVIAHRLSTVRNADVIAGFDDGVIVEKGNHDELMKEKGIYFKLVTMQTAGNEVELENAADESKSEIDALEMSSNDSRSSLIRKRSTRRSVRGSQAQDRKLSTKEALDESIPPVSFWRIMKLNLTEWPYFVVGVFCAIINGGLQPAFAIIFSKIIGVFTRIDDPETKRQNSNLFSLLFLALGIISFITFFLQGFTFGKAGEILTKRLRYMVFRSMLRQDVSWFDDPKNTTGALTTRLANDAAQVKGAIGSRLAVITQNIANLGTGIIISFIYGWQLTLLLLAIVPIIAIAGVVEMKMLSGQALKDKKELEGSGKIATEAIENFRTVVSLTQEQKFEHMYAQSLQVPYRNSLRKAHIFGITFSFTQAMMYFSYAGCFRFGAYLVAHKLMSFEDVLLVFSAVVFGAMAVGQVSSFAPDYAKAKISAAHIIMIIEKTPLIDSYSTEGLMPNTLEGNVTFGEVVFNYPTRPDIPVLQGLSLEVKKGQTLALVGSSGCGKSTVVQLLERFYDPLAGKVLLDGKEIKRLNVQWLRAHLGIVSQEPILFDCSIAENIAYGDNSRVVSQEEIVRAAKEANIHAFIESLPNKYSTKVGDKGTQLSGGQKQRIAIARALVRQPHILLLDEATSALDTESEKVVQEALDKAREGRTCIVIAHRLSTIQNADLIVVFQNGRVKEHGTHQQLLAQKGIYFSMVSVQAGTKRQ
The subject of another data set is advanced solid tumors. The note with it: cited from earlier work.
A further data set has as its system solid tumors. The note with it: three times per week, with gemcitabine; cited from earlier work.
The conditions of data set [6]: in vivo; cited from earlier work.
For data set [7] the following is noted: cited from earlier work.
The mark [8] stands for this setting: orally three times per week for 2 of every 3 weeks.

Consider 2 compounds from US20240390374A1, “MOCETINOSTAT IN COMBINATION WITH CHEMOTHERAPY TO TREAT RHABDOMYOSARCOMA” (The Regents of the University of California, priority 2021, published 2024).

With `Nc1ccccc1NC(=O)c1ccc(CNc2nccc(-c3cccnc3)n2)cc1` [mocetinostat], in data set [1], the concentration for half-maximal inhibition (IC50) (commonly the point on the concentration scale where inhibition reaches its midpoint) was below 100 nM. Moreover, the “maximum tolerated dose of mocetinostat” value in data set [2] came out at 40 mg. Moreover, the “patients with pericardial events considered related to mocetinostat” value in data set [3] (5 events: pericardial effusion, pericarditis, cardiac tamponade) is listed as “four”. In data set [3] (70-110 mg three times a week), the “Grade ≥3 treatment-related fatigue” value was 23.6%, the “Grade ≥3 treatment-related neutropenia” value is given as 15.3% and the “Grade ≥3 treatment-related thrombocytopenia” value was 12.5%. Moreover, the “patients with Grade ≥3 treatment-related AEs” value in data set [3] (72 patients, starting doses 70-110 mg three times a week, 4 week cycles) is given as 56.9%. Moreover, in data set [4], the Half-life of elimination result is on record as “about 10 hours” and the “accumulation with repeated dosing” value is reported as “little to no accumulation”. The metabolizing enzymes entry in data set [5] was “metabolized by CYP2E1 and CYP3A and possibly by CYP2C8 and CYP2C19”. Further, the CYP2C9 inhibition entry at CYP2C9 was “strong CYP2C9 inhibitor”. In addition, the P-gp interaction entry at P-gp is “a substrate and an inhibitor of P-gp”. In addition, the “patients with dose limiting toxicities (DLTs)” value in the data set on advanced solid tumors (at the 45 mg/m2/day dose) is 27%. Besides, the PK interpatient variability entry with advanced solid tumors (effect of low pH beverages) is on record as “interpatient variability which improved when mocetinostat was coadministered with low pH beverages”. The “hematologic AEs” value in the data set with advanced solid tumors (human, in vivo) is on record as “no hematologic AEs”. Moreover, in the data set on advanced solid tumors (setting [8]), the “MTD/RP2D as equivalent fixed dose” value is “about 90 mg/day” and the “maximum tolerated dose (MTD)/recommended phase II dose (RP2D)” value was 45 mg/m2/day. For the same compound, in the data set with solid tumors, the MTD/RP2D of mocetinostat is listed as 90 mg.
`CCC1=C[C@@H]2CN(C1)Cc1c([nH]c3ccccc13)[C@@](C(=O)OC)(c1cc3c(cc1OC)N(C)[C@H]1[C@@](O)(C(=O)OC)[C@H](OC(C)=O)[C@]4(CC)C=CCN5CC[C@]31[C@@H]54)C2` [vinorelbine, methyl (1R,9R,10S,11R,12R,19R)-11-acetyloxy-12-ethyl-4-[(12S,14R)-16-ethyl-12-methoxycarbonyl-1,10-diazatetracyclo[12.3.1.03,11.04,9]octadeca-3(11),4,6,8,15-pentaen-12-yl]-10-hydroxy-5-methoxy-8-methyl-8,16-diazapentacyclo[10.6.1.01,9.02,7.016,19]nonadeca-2,4,6,13-tetraene-10 carboxylate]: in [6], the “grade II-IV nausea and vomiting” value is below 10%; the “grade III-IV neurotoxicity” value is on record as “rare”. Besides, the “stability of unopened vials” value in data set [7] (at temperatures up to 25° C. (77° F.)) was “up to 72 hours”. For the same compound, the “time diluted vinorelbine may be used” value in data set [7] (normal room light, polypropylene syringes or polyvinyl chloride bags at 5-30° C.) was “up to 24 hours”.
